Data: patent US6426331B1, “Inhibitors of STAT function” (Tularik Inc., priority 1998, dated 2002)

Biological target: T1, STAT6 (Homo sapiens, UniProt P42226)
T1 sequence (P42226 1-847): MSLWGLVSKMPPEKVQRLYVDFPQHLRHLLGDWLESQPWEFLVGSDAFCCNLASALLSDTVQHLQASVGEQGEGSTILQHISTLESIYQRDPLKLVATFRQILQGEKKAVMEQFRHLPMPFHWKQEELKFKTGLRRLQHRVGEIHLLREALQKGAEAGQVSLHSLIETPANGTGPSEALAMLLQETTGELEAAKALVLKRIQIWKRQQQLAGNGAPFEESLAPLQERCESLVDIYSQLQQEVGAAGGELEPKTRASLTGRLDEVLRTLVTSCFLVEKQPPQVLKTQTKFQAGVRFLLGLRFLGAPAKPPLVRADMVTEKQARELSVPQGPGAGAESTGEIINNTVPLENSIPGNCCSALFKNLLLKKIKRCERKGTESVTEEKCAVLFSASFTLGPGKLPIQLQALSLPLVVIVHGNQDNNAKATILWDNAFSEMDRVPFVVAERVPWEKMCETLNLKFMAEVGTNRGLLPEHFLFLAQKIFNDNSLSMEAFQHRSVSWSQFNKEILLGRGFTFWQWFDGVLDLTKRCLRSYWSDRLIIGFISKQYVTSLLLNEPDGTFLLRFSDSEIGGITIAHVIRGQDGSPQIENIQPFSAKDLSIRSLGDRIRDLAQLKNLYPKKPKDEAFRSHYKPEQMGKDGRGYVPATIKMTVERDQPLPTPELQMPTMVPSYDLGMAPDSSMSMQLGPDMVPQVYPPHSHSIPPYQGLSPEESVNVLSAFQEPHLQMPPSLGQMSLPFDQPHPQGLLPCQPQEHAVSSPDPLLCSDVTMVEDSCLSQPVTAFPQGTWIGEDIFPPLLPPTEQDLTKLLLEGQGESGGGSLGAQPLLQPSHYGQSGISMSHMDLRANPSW
Assay: Inhibition of STAT6 binding (duplex formation)
Procedure: The compounds of the present invention can be evaluated for STAT binding activity using methods such as those described in U.S. Pat. No. 6,207,391 (for STAT6 binding). Other assays for STAT binding can be found in, for example, U.S. Pat. Nos. 5,618,693, 5,639,858 and 5,756,700.
Using methods similar to those described in Examples 1 and 2, the compounds provided in Table 1 were prepared and evaluated as inhibitors of STAT6 binding (duplex formation). The assay is described in U.S. Pat. No. 6,207,391, filed Mar. 31, 1998. In each of the tables below: a + symbol indicates and IC50 of >100 μM; a ++ symbol indicates and IC50 of 50-100 μM; a +++ symbol indicates and IC50 of 1-50 μM; and a ++++ symbol indicates and IC50 of <1.0 μM.

[1] = Table 1, inhibitors of STAT6 binding (duplex formation)

Structure (SMILES)	IC50 (Table 2, STAT6 binding)	IC50 [1]
CC(C)(C)[C@H](NC(=O)/C=C/c1cccc(CP(=O)(O)O)c1)C(=O)N1CCC[C@H]1C(=O)N(c1ccccc1)c1ccc(C(N)=O)cc1	> 100 µM	
CC(C)(C)[C@H](NC(=O)/C=C/c1ccc(P(=O)(O)O)cc1)C(=O)N1CCC[C@H]1C(=O)N(c1ccccc1)c1ccc(C(N)=O)cc1	1 to 50 µM	
CC(C)(C)[C@H](NC(=O)/C=C/c1ccc(C(=O)O)cc1)C(=O)N1CCC[C@H]1C(=O)N(c1ccccc1)c1ccc(C(N)=O)cc1	> 100 µM	
CC(C)(C)[C@H](NC(=O)/C=C/c1cccc(C(=O)O)c1)C(=O)N1CCC[C@H]1C(=O)N(c1ccccc1)c1ccc(C(N)=O)cc1	> 100 µM	
CC(C)(C)[C@H](NC(=O)/C=C/c1cccc(CC(=O)O)c1)C(=O)N1CCC[C@H]1C(=O)N(c1ccccc1)c1ccc(C(N)=O)cc1	> 100 µM	
CC(C)(C)[C@H](NC(=O)/C=C/c1ccc(OCC(=O)O)cc1)C(=O)N1CCC[C@H]1C(=O)N(c1ccccc1)c1ccc(C(N)=O)cc1	> 100 µM	
CC(C)(C)[C@H](NC(=O)/C=C/c1ccc(C(=O)O)cn1)C(=O)N1CCC[C@H]1C(=O)N(c1ccccc1)c1ccc(C(N)=O)cc1	> 100 µM	
CC(C)(C)[C@H](NC(=O)/C=C/c1cccc(C(=O)O)n1)C(=O)N1CCC[C@H]1C(=O)N(c1ccccc1)c1ccc(C(N)=O)cc1	> 100 µM	
CC(C)(C)[C@H](NC(=O)/C=C/c1ccc(C(O)C(=O)O)cc1)C(=O)N1CCC[C@H]1C(=O)N(Cc1ccc(CN)cc1)c1ccc(C(N)=O)cc1 (stereo partly drawn) [drawing 46: H, H, 4-CONH2,4-CH2NH2]		1 to 50 µM
CC(C)(C)[C@H](NC(=O)/C=C/c1ccc(C(O)C(=O)O)cc1)C(=O)N1C[C@H](N(Cc2ccccc2)Cc2ccccc2)C[C@H]1C(=O)N(Cc1ccccc1)c1ccc(C(N)=O)cc1 (stereo partly drawn) [drawing 46: H, —N(Bn)2,4-CONH2, H]		> 100 µM
CC(C)(C)[C@H](NC(=O)/C=C/c1ccc(C(O)C(=O)O)cc1)C(=O)N1C[C@H](N)C[C@H]1C(=O)N(Cc1ccccc1)c1ccc(C(N)=O)cc1 (stereo partly drawn) [drawing 46: H, —NH2,4-CONH2, H]		1 to 50 µM

Other lines, results leading:

IC50 (Table 2, STAT6 binding)	IC50 [1]	Structure (SMILES)
1 to 50 µM		CC(C)(C)[C@H](NC(=O)/C=C/c1ccc(CP(=O)(O)O)cc1)C(=O)N1CCC[C@H]1C(=O)N(c1ccccc1)c1ccc(C(N)=O)cc1
1 to 50 µM		CC(C)(C)[C@H](NC(=O)/C=C/c1ccc(C(O)P(=O)(O)O)cc1)C(=O)N1CCC[C@H]1C(=O)N(c1ccccc1)c1ccc(C(N)=O)cc1 (stereo partly drawn)
< 1 µM		CC(C)(C)[C@H](NC(=O)/C=C/c1ccc(C(F)(F)P(=O)(O)O)cc1)C(=O)N1CCC[C@H]1C(=O)N(c1ccccc1)c1ccc(C(N)=O)cc1
1 to 50 µM		COc1cc(/C=C/C(=O)N[C@H](C(=O)N2CCC[C@H]2C(=O)N(c2ccccc2)c2ccc(C(N)=O)cc2)C(C)(C)C)ccc1P(=O)(O)O
1 to 50 µM		CC(C)(C)[C@H](NC(=O)/C=C/c1ccc(P(=O)(O)O)c(O)c1)C(=O)N1CCC[C@H]1C(=O)N(c1ccccc1)c1ccc(C(N)=O)cc1
1 to 50 µM		CC(C)(C)[C@H](NC(=O)/C=C/c1ccc(C(=O)O)c(C(=O)O)c1)C(=O)N1CCC[C@H]1C(=O)N(c1ccccc1)c1ccc(C(N)=O)cc1
> 100 µM		CC(C)(C)[C@H](NC(=O)/C=C/c1ccc(CC(=O)O)cc1)C(=O)N1CCC[C@H]1C(=O)N(c1ccccc1)c1ccc(C(N)=O)cc1
1 to 50 µM		CC(C)(C)[C@H](NC(=O)/C=C/c1ccc(OC(F)(C(=O)O)C(=O)O)cc1)C(=O)N1CCC[C@H]1C(=O)N(c1ccccc1)c1ccc(C(N)=O)cc1
	> 100 µM	CC(C)(C)[C@H](NC(=O)/C=C/c1ccc(C(O)C(=O)O)cc1)C(=O)N1CCC[C@H]1C(=O)N(Cc1ccccc1)c1ccc(C(=O)Nc2ccccc2)cc1 (stereo partly drawn) [drawing 46: H, H, 4-CONHPh, H]
	50 to 100 µM	CN(C)[C@@H]1C[C@@H](C(=O)N(Cc2ccccc2)c2ccc(C(N)=O)cc2)N(C(=O)[C@@H](NC(=O)/C=C/c2ccc(C(O)C(=O)O)cc2)C(C)(C)C)C1 (stereo partly drawn) [drawing 46: H, —N(CH3)2,4-CONH2, H]
